Measurements taken from patent publication US6143875A, “Antibody to DNase involved in apoptosis” (priority 1994, dated 2000).
Residue numbers refer to the chain shown, from its start. Where “and” joins values, the source holds several entries; their conditions need not be identical. Identical values can stand only once. Values belong to the molecule of their own block, whether it stands above or below them.

Columns and labels:
DNase α = experiment: DNase (endonuclease) activity assay, HeLa S3 nuclei as substrate (Assay 1); format: biochemical, rat; details: for effect of divalent cation on DNase α activity: increasing concentrations of MgCl2 or CaCl2
Description: (§1) The activity of endonuclease (DNase) can be assayed by observing fragmentation of chromosomal DNA in the nucleus on 2% agarose gel electrophoresis using, as a substrate, the nucleus of HeLa S3 cell (human cervical carcinoma epithelial cell) which is completely free of endogenous endonuclease [Biochem. Biophys. Res. Commun. 194, (1993), pp, 30-31].
(§2) To be specific, a reaction mixture (30 μl) of HeLa S3 cells (1.67×10^7 /ml) and DNase fraction is incubated at 37° C. for 60 minutes and the reaction is stopped by cooling same on ice. Then, the reaction mixture after reaction is centrifuged at 20,000× g for 20 seconds, and the precipitated nuclei are dissolved in a lysis buffer [50 mM Tris-HCl (pH 7.8), 10 mM EDTA, 0.5% w/v N-lauronyl sarcosylate Na]. The obtained DNA is thoroughly treated with 0.5 mg/ml RNase A for 20 minutes and with 0.5 mg/ml proteinase K for 30 minutes, after which they are subjected to 2% agarose gel electrophoresis. […] The ratio of fragmentation (percent fragmentation) is calculated from the density of DNA fragments with a molecular weight of less than 5 kb.
(§3) As a suitable reaction solution for the assay of the activity of DNases α and β, 50 mM MES-NaOH (-pH 5.6) buffer containing 3 mM MgCl2, 1 mM 2-mercaptoethanol and 0.1 mM PMSF is used. As a suitable reaction solution for the assay of the activity of DNase γ, 50 mM MOPS-NaOH (pH 7.2) buffer containing 3 mM CaCl2, 3 mM MgCl2, 1 mM 2-mercaptoethanol and 0.1 mM PMSF is used.
(§4) Effects of divalent cations on the activity of DNase α, […] were examined. To be specific, the effect of Mg^2+ was examined by assaying the activity of purified DNases α, β and γ in the presence of 3 mM CaCl2 with increasing concentrations of MgCl2. The effect of Ca^2+ was examined by assaying the activity of DNases α, β and γ purified in the same manner, with increasing concentrations of CaCl2 in the presence of 3 mM MgCl2. The effect of Zn^2+ was examined in 50 mM […] (pH 5.6) buffer containing 3 mM MgCl2, 1 mM 2-mercaptoethanol and 0.1 mM PMSF with increasing concentrations of ZnCl2 with regard to DNases α and β, and it was examined in 50 mM MOPS-NaOH (pH 7.2) buffer containing 3 mM CaCl2, 3 mM MgCl2, 1 mM 2-mercaptoethanol and 0.1 mM PMSF, with increasing concentrations of ZnCl2 with regard to DNase γ. The results are shown in FIG. 8, FIG. 8B, and FIG. 8C. As a result, DNase γ required both Ca^2+ and Mg^2+ for full activity, wherein the optimal concentration of the both was 1-3 mM (FIG. 8A and FIG. 8B). DNase γ was sensitive to Zn^2+, and its activity was inhibited by 50% by Zn^2+ with a low concentration of 40 μM (FIG. 8c).
(§5) The activity of DNases α and β was calculated relative to the endonuclease activity which was assayed using HeLa S3 cell nuclear chromatin DNA as a substrate and 50 mM MES-NaOH (pH 5.6) buffer containing 3 mM MgCl2, 1 mM 2-mercaptoethanol and 0.1 mM PMSF as a reaction solution, and taken as 100%; and the activity of DNase γ was calculated relative to the endonuclease activity which was assayed using HeLa S3 cell nuclear chromatin DNA as a substrate and 50 mM MOPS-NaOH (pH 7.2) buffer containing 3 mM CaCl2, 3 mM MgCl2, 1 mM 2-mercaptoethanol and 0.1 mM PMSF as a reaction solution, and taken as 100%. In the Table, "-" means deletion of said components from the above-mentioned optimal reaction mixture and "+" means addition of said components to the above-mentioned optimal reaction mixture.

DNase β = experiment: as above; format: biochemical, rat; details: for effect of divalent cation on DNase β activity: increasing concentrations of MgCl2 or CaCl2
Description: as §1, §2, §3, §4, §5

DNase γ = molecular target: T1, DNase γ (Rattus norvegicus, UniProt O89107); experiment: as above; format: biochemical; details: for optimal concentration for full DNase γ activity: both Ca2+ and Mg2+ required, other cation at 3 mM; for DNase activity (%) γ: optimal mixture =100%
T1 sequence (O89107 26-310): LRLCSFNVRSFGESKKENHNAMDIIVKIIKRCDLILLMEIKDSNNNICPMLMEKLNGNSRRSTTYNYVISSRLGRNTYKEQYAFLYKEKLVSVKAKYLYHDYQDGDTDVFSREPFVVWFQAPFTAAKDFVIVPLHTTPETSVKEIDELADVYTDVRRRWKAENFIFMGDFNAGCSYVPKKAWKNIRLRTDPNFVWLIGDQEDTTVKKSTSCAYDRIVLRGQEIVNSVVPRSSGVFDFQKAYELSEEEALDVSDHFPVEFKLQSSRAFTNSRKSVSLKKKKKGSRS
Description: as §1, §2, §3, §4, §5

[1] = tested on: HeLa S3 cell nuclear chromatin DNA; experiment: Endonuclease activity of purified DNases in HeLa S3 nuclear assay system; format: biochemical, human
Description: as §1, §2, §3
The optimal pH for the activity of DNases α, β and γ was determined by assaying HeLa S3 nuclei in various buffers from acidic to basic (Reference Example 3, Assay 1) and calculating from the percentage of DNA fragmentation.
as §5

[2] = tested on: DNA derived from HeLa S3 cell nuclei; experiment: End labeling method, DNA cleavage mode; format: biochemical, human; details: 3' and 5' end labeling with/without alkaline phosphatase
[3] = +3 mM added to optimal reaction mixture (=100%)
[4] = +Mn2+ 3 mM, -Mg2+/Ca2+, optimal mixture =100%
[5] = +Zn2+ 0.1 mM, optimal mixture =100%
[6] = increasing ZnCl2 in pH 5.6 buffer, 3 mM MgCl2, read-out: Inhibition by Zn2+: IC50
[7] = up to the concentration of 1 mM
[8] = +aurintricarboxylate 30 μM, optimal mixture =100%
[9] = +aurintricarboxylate 100 μM, optimal mixture =100%

DNase activity (%) α (DNase α; [3]): 101%
effect of divalent cation on DNase α activity (DNase α): not influenced
DNase activity (%) β (DNase β; [3]): 104%
effect of divalent cation on DNase β activity (DNase β): not influenced
optimal concentration for full DNase γ activity (DNase γ): 1 to 3 mM
Molecule: [Ca+2].[Cl-].[Cl-] [Ca^2+]

DNase activity (%) α (DNase α; [3]): 104%
effect of divalent cation on DNase α activity (DNase α): not influenced
DNase activity (%) β (DNase β; [3]): 102%
effect of divalent cation on DNase β activity (DNase β): not influenced
optimal concentration for full DNase γ activity (DNase γ): 1 to 3 mM
Molecule: [Cl-].[Cl-].[Mg+2] [Mg^2+]

The remaining lines, values behind:

Molecule: [Mn+2] [Mn^2+]
DNase activity (%) α (DNase α; [4]): 104%
DNase activity (%) β (DNase β; [4]): 103%
DNase activity (%) γ (DNase γ; +Mn2+ 3 mM, -Mg2+/Ca2+): 45%

Molecule: [Cl-].[Cl-].[Zn+2] [Zn^2+]
DNase activity (%) α (DNase α; [5]): 90%
IC50 (DNase α; [6]): ≥ 1000 µM
effect of Zn2+ on DNase α activity (DNase α; [7]): not influenced
DNase activity (%) β (DNase β; [5]): 93%
IC50 (DNase β; [6]): ≥ 1000 µM
effect of Zn2+ on DNase β activity (DNase β; [7]): not influenced
DNase activity (%) γ (DNase γ; +Zn2+ 0.1 mM): 21%
IC50 (DNase γ; increasing ZnCl2 in 50 mM MOPS-NaOH (pH 7.2), 3 mM CaCl2, 3 mM MgCl2, read-out: Inhibition by Zn2+: IC50): 40 µM

Molecule: O=C(O)C1=CC(=C(c2ccc(O)c(C(=O)O)c2)c2ccc(O)c(C(=O)O)c2)C=CC1=O [aurintricarboxylic acid]
inhibition of DNase α activity (DNase α): completely inhibited
DNase activity (%) α (DNase α; [8]): 32%
DNase activity (%) α (DNase α; [9]): 0%
DNase activity (%) β (DNase β; [8]): 0%
DNase activity (%) β (DNase β; [9]): 0%
inhibition of DNase β activity (DNase β; at a concentration of 100 μM): completely inhibited
DNase activity (%) γ (DNase γ; +aurintricarboxylate 30 μM): 29%
DNase activity (%) γ (DNase γ; +aurintricarboxylate 100 μM): 0%
inhibition of DNase γ activity (DNase γ; at a concentration of 100 μM): completely inhibited

B1: DNase γ: novel endonuclease of rat cell nuclei cleaving linker sites of chromatin DNA; SEQ ID NO: 1, amino acids 26-310 (protein)
chain: T1 sequence (O89107 26-310) with N163I, L218V
Divalent cation dependency [1]: Ca^2+ /Mg^2+, Mn^2+ dependent
DNase activity (%) ([1]; -2-mercaptoethanol (deleted from optimal reaction mixture =100%)): 96%
DNase activity (%) ([1]; -Ca2+ (deleted from optimal reaction mixture =100%)): 1%
DNase activity (%) ([1]; -Mg2+ (deleted from optimal reaction mixture =100%)): 16%
DNase activity (%) ([1]; -PMSF (deleted from optimal reaction mixture =100%)): 94%
DNA cleavage mode [2]: 3'-OH/5'-P termini and 3'--OH, 5'-P end forming type
